Values belong to the molecule of their own block, whether it stands above or below them.
Experiments:
[1] = target: Phosphatidylinositol 4,5-bisphosphate 3-kinase catalytic subunit alpha isoform (Homo sapiens) (UniProt P42336); assay: Selectivity interaction (Adapta Assay) EUB0001632a PIK3CA; details: at 10 µM
[2] = target: Cell division control protein 42 homolog (Homo sapiens) (UniProt P60953); assay: Selectivity interaction (SelectScreen profiling (Invitrogen)) EUB0000607a CDC42; details: at 2 µM
Sequence of Cell division control protein 42 homolog (Homo sapiens) (P60953 whole entry, looked up): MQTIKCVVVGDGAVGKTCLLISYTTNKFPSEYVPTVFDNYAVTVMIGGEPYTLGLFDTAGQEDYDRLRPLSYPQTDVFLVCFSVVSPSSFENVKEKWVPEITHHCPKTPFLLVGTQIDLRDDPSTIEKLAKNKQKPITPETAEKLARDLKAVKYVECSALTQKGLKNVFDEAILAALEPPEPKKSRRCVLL

KCNQ1 = KCNQ1 (Homo sapiens, UniProt P51787); assay: Selectivity interaction (Panel of kinases, GPCRs, ion channels and transporters (enzymatic assay)) EUB0000266bCl KCNQ1
Sequence of KCNQ1 (P51787 whole entry): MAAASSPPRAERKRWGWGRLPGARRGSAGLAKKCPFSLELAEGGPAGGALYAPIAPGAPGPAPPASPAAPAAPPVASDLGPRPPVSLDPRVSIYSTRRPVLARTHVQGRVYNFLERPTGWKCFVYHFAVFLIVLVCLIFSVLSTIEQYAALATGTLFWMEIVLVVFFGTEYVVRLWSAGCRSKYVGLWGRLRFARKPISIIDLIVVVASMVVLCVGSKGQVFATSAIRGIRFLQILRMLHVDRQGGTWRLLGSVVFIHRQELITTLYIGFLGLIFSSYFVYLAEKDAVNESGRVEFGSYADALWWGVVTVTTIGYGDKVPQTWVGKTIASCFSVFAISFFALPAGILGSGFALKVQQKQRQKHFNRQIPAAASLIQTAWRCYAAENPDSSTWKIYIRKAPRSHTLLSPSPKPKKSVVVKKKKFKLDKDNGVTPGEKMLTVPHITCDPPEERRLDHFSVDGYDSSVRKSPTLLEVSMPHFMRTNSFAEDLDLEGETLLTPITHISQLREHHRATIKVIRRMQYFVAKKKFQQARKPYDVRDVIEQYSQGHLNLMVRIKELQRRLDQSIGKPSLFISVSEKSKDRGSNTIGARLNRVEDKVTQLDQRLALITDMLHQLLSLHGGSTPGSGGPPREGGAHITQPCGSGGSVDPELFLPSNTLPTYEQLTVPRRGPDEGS

[3] = target: Hepatocyte growth factor-like protein (Homo sapiens) (UniProt P26927); details: at 1 µM
[4] = target: Mitogen-activated protein kinase kinase kinase 10 (Homo sapiens) (UniProt Q02779); details: at 10 µM
[5] = target: Mitogen-activated protein kinase 7 (Homo sapiens) (UniProt Q13164); assay: Selectivity interaction (ActivX KiNativ screen (kinase selectivity in THP-1 cell lysates)) EUB0000639a MAPK7; format: subcellular; details: lysate
Sequence of Mitogen-activated protein kinase 7 (Homo sapiens) (Q13164 2-816 limits assumed): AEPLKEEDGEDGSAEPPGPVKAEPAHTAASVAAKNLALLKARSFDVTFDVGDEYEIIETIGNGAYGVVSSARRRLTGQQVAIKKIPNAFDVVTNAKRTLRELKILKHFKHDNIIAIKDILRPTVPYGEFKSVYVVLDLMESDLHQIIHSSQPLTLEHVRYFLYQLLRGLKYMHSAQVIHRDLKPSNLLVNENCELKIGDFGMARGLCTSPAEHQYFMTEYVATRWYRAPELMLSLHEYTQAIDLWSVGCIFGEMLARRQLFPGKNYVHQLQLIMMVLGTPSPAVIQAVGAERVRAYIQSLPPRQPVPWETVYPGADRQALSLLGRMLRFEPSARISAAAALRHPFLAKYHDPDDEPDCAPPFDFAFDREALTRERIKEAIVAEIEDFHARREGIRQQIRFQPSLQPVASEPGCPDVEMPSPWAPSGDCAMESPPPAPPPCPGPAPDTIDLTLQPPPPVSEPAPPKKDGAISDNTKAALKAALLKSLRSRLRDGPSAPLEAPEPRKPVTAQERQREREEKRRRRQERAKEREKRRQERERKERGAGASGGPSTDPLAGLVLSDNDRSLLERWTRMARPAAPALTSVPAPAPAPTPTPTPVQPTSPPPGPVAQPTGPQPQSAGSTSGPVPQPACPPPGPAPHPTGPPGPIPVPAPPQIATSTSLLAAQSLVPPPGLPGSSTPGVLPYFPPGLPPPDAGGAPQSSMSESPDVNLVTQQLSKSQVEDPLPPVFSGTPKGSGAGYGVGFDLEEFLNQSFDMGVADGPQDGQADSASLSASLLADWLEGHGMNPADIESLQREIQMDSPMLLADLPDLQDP

[6] = target: T1, Cyclin-dependent kinase 11A (Homo sapiens) (UniProt Q9UQ88); assay: Selectivity interaction (KinomeScan (DiscoverX)) EUB0000595a CDK11A; details: at 10 µM
T1 sequence (whole entry): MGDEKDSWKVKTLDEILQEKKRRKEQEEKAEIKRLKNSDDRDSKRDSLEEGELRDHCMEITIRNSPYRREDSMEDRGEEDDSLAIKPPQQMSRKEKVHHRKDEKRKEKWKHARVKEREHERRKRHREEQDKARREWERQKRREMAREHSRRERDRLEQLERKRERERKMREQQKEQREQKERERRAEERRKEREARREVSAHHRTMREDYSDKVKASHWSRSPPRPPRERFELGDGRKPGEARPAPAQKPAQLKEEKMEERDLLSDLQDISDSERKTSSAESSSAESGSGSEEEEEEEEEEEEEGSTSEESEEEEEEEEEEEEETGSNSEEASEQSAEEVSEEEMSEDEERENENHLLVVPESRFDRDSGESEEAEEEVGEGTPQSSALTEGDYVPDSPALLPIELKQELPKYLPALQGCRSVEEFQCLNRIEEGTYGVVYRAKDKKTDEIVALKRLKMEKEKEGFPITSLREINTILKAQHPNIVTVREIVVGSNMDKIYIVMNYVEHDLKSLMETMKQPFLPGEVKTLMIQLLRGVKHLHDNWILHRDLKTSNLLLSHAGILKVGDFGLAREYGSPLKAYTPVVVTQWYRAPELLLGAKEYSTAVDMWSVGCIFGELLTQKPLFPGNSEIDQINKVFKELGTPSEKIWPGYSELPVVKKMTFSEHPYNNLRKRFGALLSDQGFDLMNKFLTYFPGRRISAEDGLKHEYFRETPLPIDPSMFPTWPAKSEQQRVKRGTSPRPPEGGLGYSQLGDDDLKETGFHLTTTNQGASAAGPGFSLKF

[7] = tested on: Tyrosine-protein kinase ABL1 (Homo sapiens), P00519 [Q252H]; assay: Selectivity interaction (KinomeScan (DiscoverX)) EUB0000655a ABL1; details: at 10 µM
[8] = target: Mitogen-activated protein kinase kinase kinase kinase 5 (Homo sapiens) (UniProt Q9Y4K4); assay: Selectivity interaction (KinomeScan (DiscoverX)) EUB0000045b MAP4K5
Sequence of Mitogen-activated protein kinase kinase kinase kinase 5 (Homo sapiens) (Q9Y4K4 whole entry, looked up): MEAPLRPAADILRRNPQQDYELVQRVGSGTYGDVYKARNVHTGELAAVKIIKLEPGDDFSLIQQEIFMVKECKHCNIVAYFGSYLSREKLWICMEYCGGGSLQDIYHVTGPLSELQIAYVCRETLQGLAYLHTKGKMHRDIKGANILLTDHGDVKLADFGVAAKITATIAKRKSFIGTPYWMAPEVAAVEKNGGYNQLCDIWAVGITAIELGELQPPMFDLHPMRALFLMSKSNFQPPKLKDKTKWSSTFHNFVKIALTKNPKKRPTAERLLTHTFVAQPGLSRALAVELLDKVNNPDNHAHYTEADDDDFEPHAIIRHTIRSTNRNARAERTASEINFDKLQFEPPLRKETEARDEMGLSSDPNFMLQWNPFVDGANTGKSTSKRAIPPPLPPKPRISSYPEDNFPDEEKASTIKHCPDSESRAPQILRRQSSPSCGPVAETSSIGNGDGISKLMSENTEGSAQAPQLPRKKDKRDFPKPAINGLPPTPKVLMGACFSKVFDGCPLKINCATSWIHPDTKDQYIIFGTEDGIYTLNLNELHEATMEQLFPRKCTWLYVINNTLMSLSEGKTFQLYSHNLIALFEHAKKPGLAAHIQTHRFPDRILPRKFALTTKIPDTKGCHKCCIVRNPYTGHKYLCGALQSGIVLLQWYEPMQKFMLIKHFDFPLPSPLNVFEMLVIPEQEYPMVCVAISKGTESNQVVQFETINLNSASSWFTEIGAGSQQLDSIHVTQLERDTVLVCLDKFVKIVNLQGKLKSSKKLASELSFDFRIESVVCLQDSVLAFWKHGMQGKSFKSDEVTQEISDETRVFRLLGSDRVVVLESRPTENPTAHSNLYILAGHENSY

[9] = target: Tyrosine-protein kinase HCK (Homo sapiens) (UniProt P08631); assay: Selectivity interaction (KinomeScan (DiscoverX)) EUB0000045b HCK
Sequence of Tyrosine-protein kinase HCK (Homo sapiens) (P08631 2-526 limits assumed): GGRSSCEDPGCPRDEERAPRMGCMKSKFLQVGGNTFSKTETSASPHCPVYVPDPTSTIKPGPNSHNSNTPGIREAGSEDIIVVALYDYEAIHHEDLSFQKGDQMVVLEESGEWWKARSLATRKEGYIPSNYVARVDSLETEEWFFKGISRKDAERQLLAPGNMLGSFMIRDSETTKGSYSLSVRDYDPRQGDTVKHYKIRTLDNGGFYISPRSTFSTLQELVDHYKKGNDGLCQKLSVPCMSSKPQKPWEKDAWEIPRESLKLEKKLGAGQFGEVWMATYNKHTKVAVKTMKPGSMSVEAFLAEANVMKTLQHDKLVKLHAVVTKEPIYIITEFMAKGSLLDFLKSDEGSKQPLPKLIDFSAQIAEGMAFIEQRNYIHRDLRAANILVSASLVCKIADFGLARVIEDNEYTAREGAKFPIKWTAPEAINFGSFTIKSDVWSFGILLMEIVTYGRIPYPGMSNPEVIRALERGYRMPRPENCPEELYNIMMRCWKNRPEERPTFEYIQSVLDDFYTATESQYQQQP

[10] = target: SRSF protein kinase 3 (Homo sapiens) (UniProt Q9UPE1); assay: Selectivity interaction (KinomeScan (DiscoverX)) EUB0001079a SRPK3; details: at 1 µM
Sequence of SRSF protein kinase 3 (Homo sapiens) (Q9UPE1 whole entry): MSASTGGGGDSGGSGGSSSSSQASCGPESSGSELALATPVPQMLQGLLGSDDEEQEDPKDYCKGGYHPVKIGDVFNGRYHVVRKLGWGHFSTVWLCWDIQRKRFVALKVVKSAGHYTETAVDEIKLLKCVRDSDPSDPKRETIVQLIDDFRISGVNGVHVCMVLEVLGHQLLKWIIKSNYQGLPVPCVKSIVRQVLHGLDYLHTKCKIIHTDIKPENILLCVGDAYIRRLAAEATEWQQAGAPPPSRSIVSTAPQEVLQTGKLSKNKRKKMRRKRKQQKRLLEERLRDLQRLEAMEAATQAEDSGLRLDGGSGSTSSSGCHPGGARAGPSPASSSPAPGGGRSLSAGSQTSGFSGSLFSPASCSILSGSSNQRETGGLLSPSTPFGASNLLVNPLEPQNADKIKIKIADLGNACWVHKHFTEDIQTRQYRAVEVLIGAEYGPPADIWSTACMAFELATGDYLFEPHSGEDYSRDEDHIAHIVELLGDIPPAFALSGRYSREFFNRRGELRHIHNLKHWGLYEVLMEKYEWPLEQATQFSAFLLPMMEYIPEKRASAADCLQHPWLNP

[11] = target: T2, Dual specificity mitogen-activated protein kinase kinase 3 (Homo sapiens) (UniProt P46734); assay: Selectivity interaction (KinomeScan (DiscoverX)) EUB0001079a MAP2K3; details: at 1 µM
T2 sequence (whole entry): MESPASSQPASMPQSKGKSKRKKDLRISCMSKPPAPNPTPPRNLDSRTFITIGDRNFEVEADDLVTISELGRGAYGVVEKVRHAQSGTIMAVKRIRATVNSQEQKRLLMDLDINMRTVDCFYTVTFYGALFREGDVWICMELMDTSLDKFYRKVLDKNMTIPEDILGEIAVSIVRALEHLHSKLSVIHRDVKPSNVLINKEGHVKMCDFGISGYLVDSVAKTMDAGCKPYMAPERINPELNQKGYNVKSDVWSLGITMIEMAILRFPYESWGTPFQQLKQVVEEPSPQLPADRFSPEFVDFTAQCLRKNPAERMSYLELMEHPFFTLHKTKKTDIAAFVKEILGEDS

[12] = target: Cyclin-dependent kinase 7 (Homo sapiens, UniProt P50613); assay: Selectivity interaction (KinomeScan (DiscoverX)) EUB0000229b CDK7; details: at 10 µM
[13] = target: Death-associated protein kinase 3 (Homo sapiens) (UniProt O43293); details: at 10 µM
Sequence of Death-associated protein kinase 3 (Homo sapiens) (O43293 whole entry, looked up): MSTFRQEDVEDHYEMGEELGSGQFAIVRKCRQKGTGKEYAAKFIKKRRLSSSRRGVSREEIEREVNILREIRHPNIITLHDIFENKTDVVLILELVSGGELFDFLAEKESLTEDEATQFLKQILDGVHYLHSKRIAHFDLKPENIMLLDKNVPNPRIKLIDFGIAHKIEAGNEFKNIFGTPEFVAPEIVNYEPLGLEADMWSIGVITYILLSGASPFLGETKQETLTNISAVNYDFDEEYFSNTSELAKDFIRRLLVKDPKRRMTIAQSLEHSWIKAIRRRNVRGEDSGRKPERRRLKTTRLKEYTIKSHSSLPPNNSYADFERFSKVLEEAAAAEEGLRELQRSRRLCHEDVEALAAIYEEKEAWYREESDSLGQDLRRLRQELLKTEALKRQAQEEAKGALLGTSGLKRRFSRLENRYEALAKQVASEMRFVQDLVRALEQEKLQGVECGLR

[14] = target: Wee1-like protein kinase (Homo sapiens) (UniProt P30291); details: at 10 µM
Sequence of Wee1-like protein kinase (Homo sapiens) (P30291 whole entry, looked up): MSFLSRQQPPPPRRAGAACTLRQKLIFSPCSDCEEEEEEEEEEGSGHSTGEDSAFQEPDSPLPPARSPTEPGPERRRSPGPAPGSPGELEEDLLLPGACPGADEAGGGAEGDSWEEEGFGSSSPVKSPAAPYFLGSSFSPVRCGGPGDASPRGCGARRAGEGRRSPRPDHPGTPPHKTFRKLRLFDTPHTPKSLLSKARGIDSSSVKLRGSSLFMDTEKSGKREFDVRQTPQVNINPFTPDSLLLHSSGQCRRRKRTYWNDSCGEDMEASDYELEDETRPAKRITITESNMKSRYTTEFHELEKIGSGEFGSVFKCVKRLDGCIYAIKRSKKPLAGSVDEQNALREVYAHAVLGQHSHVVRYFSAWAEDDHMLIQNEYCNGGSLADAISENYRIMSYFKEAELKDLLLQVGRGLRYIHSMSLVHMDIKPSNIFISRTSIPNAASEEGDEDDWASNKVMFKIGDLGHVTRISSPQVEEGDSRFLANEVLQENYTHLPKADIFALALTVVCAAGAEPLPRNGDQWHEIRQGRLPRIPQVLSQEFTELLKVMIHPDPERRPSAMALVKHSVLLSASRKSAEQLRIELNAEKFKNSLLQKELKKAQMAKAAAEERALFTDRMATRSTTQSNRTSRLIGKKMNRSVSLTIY

% of inhibition [1]: 22.8%
Structure (SMILES): Cn1cc(-n2cnc3c(NCc4nc5cc(Cl)c(Cl)cc5[nH]4)nc(N4CCOCC4)nc32)cn1

Structure (SMILES): CNC(=O)Nc1ccc(-c2nc(N3CC4CCC(C3)O4)c3cnn(C4CCC5(CC4)OCCO5)c3n2)cc1
% of inhibition [2]: 9%

XC50 (KCNQ1): > 25.1 µM
Structure (SMILES): CCn1c(-c2nc3cc(C(=O)N4CCCC(N)C4)ccc3n2C)cc2ccccc21 (stereo unspecified)

% of inhibition [3]: 6%
Structure (SMILES): Cc1ccc(-c2ccc3c(ccc4sc5c(c43)NC[C@@H](C)NC5=O)n2)cn1

% of control [4]: 100%
Structure (SMILES): CCN(CC)CCCCNc1ncc2cc(-c3cc(OC)cc(OC)c3)c(NC(=O)NC(C)(C)C)nc2n1

% of inhibition ([5]; at 0.01 µM): -4.2%
% of inhibition ([5]; at 0.04 µM): 1.9%
% of inhibition ([5]; at 0.2 µM): -8.8%
% of inhibition ([5]; at 1 µM): -11.9%
% of inhibition ([5]; at 5 µM): 15.7%
Structure (SMILES): CC[C@@H]1[C@H](F)C(=O)N[C@@H]1COc1nccc2cc(C(N)=O)c(OC)cc12 [ZIMLOVISERTIB]

Structure (SMILES): COCC(=O)NC/C=C/c1ccc2ncnc(Nc3ccc(Oc4ccc(C)nc4)c(C)c3)c2c1 [CP-724714]
% of control [6]: 100%

Structure (SMILES): CN(C)CCOc1ccc(-c2nc(-c3ccncc3)c(-c3ccc4c(c3)CC/C4=N\O)[nH]2)cc1
% of control [7]: 3.8%

Structure (SMILES): C=CC(=O)Nc1cc(-n2c(=O)ccc3cnc4ccc(-c5ccc(NS(C)(=O)=O)cc5)cc4c32)ccc1C
% of control ([8]; at 1 µM): 100%
% of control ([8]; at 10 µM): 74%
% of control ([9]; at 1 µM): 97%
% of control ([9]; at 10 µM): 100%

Structure (SMILES): Nc1cnc(N2CCc3cc(S(=O)(=O)Nc4c(F)cc(Cl)cc4F)cc(N4CCCC4=O)c32)nc1 [TP-020n]
% of control [10]: 100%
% of control [11]: 100%

Structure (SMILES): COc1cc(N(C)c2ccnc3ccc(C(F)(F)F)cc23)cc(OC)c1OC
% binding [12]: 57%

Structure (SMILES): Cc1cc([C@@H](C)Nc2ccccc2C(=O)O)c2nc(N3CCOCC3)cc(=O)n2c1 [AZD-6482]
% of control [13]: 100%
% of control [14]: 100%

From ChEMBL document CHEMBL5465560, “Selectivity Literature for EUbOPEN Chemogenomic Library” (2024)
